Measurements as given in patent US20120114636A1, “LOW MOLECULAR WEIGHT CYCLIN E (LMW-E) AS A BIOMARKER FOR PERSONALIZATION OF CANCER THERAPIES” (The Board of Regents of the University of Texas System, priority 2009, published 2012).
Values joined by “and” are separate entries in the source; they are usually repeats but may differ in a detail not shown here. Equal values may be shown once.

Assays:
Format in all cases: cell-based, human
[1] = system: MCF-7/Ac1 cells; assay: Cell growth by cell counting, AD-stimulated cells; conditions: 3 days
Description: Cell growth. The effects of the aromatase inhibitors on MCF7/Ac1 cells growth were examined by counting the cells at the indicated time. The cells were detached from their flask using trypsin and counted using a Coulter counter machine.
To examine the effects of the three different aromatase inhibitors on the proliferation of MCF-7/Ac1 cells, cells were cultured in estrogen deprived, charcoal stripped serum media (CSSM). The response of the cells to 25 nM of androstenedione (AD) alone or AD plus one of the 3 aromatase inhibitors letrozole (FIG. 22A), anastrozole (FIG. 22B), and exemestane (FIG. 22C) was measured after 3 days of treatment. Cells maintained in CSSM were used as controls.
FIGS. 22A-22C show the effect of aromatase inhibitor treatment on proliferative response and cell cycle distribution of MCF-7/Ac1 cells. Cells were cultured in IMEM with 10% charcoal-stripped serum medium (CSSM) without phenol red and with 600 μg/ml of G418 for 4 days before plating. Cells (100,000) were seeded in 100 mm dishes and, 24 hrs later, were exposed for 3 days to the specific treatment. […] CSSM, untreated cells cultured in charcoal-stripped serum medium without phenol red and with 600 μg/ml of G418.

[2] = system: MCF-7/Ac1 cells; assay: Cell cycle analysis by flow cytometry (PI)
Description: Cell cycle analysis. MCF-7/Ac1 cells were cultured in estrogen-deprived media with or without 25 nM 4-androstenedione, and treated with different concentrations of aromatase inhibitors. Untreated and drug treated cells were collected 72 hours later for flow cytometry and lysates were prepared for western blot and kinase assays.
Flow cytometry analysis. Cells were pelleted and resuspended in 1.5 ml of PBS, then fixed in 3.5 ml of 95% ethanol overnight at −20° C. After being washed, the pellets were resuspended in a solution of PBS containing 10 μg/ml propidium iodide, 20 μg/ml RNase A, 0.5% Tween 20, and 0.5% BSA and incubated at 37° C. for 30 min. The profiles of cells in the G0-G1, S, and G2-M phases of the cell cycle were analyzed at the M. D. Anderson Cancer Center Cytometry Core Facility on a FACS Caliber machine equipped with Cellquest or ModFit software.
FIGS. 22A-22C show the effect of aromatase inhibitor treatment on proliferative response and cell cycle distribution of MCF-7/Ac1 cells. Cells were cultured in IMEM with 10% charcoal-stripped serum medium (CSSM) without phenol red and with 600 μg/ml of G418 for 4 days before plating. Cells (100,000) were seeded in 100 mm dishes and, 24 hrs later, were exposed for 3 days to the specific treatment. […] Cell growth is expressed as the percentage of the cells compared with the control cells (25 nM AD treated cells, 575,000 cells at day 3). Columns, mean of two to three experiments, each in triplicates; bars, S.D. *, P<0.05, when compared to cells only treated with 25 nM AD; n.s, not significant. CSSM, untreated cells cultured in charcoal-stripped serum medium without phenol red and with 600 μg/ml of G418.

[3] = system: BT474 cells; assay: High throughput clonogenic assay, trastuzumab and roscovitine; conditions: agents alone or in combination
Description: (§1) FIGS. 27A-27B. […] FIG. 27B. […] Isobologram analysis and graphs were obtained using CalcuSyn software, which performs drug dose—effect calculation using the median effect method. Experiments were performed in triplicate and representative data are shown.

[4] = system: SKBr3 cells; assay: as above; conditions: agents alone or in combination
Description: as §1

[5] = system: MCF-7/Ac1 cells; assay: Cell number of adenovirus-infected cells (LacZ, cyclin EL, T1, T2); conditions: 20 uM, uninfected, LacZ or cyclin E-T1 infected cells
Source text: LMW cyclin E, but not full-length cyclin E, overexpressing MCF-7/Ac1 cells partially override the letrozole inhibition of AD-induced S-phase entry and AD-induced CDK2 protein levels. Since overexpression of LMW cyclin E deregulates the G1 to S transition, the inventors interrogated the role of full-length and LMW cyclin E in letrozole response. To this end, the inventors examined the sensitivity of cyclin E overexpressing MCF-7/Ac1 cells to the growth inhibitory effect of letrozole using adenoviruses to overexpress full-length and LMW cyclin E (FIGS. 24A-24D). MCF-7/Ac1 cells were cultured in charcoal stripped serum media (CSSM) for 4 days before infecting them with 4000 m.o.i. of either LacZ, full-length cyclin E (cyclin EL) or LMW cyclin E (cyclin E-T1 and cyclin E-T2). Twenty-four hours later, cells were left either untreated, treated with 25 nM AD alone, or treated with 25 nM AD plus 1 μM letrozole for an additional 3 days (FIGS. 24A-24B). Following the treatment, cells were enumerated or subjected to flow cytometry analysis.
MCF-7/Ac1 cells were cultured in IMEM with 10% charcoal-stripped serum medium (CSSM) without phenol red and with 600 μg/ml of G418 for 4 days before plating. Triplicate wells of 6-well plates were then infected with the indicated adenoviruses (at 4000 m.o.i.) 24 hours before drug treatment. Cells were then left untreated (E2W, estrogen withdrawal) or treated with 25 nM AD (AD) or treated with 25 nM AD and 1 μM letrozole (AD+Let) and collected 3 days later for cell number. Cell growth is expressed as the percentage of the cells compared with the control cells (25 nM AD treated cells). […] MCF-7/Ac1 cells were treated as described in A, and collected for flow cytometry analysis. Histograms represent the S-phase fraction expressed as the percentage of the cells in S-phase compared with the control cells (25 nM AD treated cells). […] The same cell lysates as in A and B were subjected to western blot analysis (50 μg of protein) with cyclin E and CDK2 antibodies. The bar graph represents the densitometric values of the phosphorylated CDK2 bands. […] Left, MCF-7/Ac1 cells were cultured in IMEM with 10% charcoal-stripped serum medium (CSSM) without phenol red and with 600 μg/ml of G418 for 4 days before plating. Cells were then infected with the indicated adenoviruses (at 4000 m.o.i.) 24 hours before drug treatment. Cells were then treated with 25 nM AD and 1 μM letrozole and collected 3 days later for cell number. […] Columns, mean of two to three experiments, each in triplicates; bars, S.D.
To directly address this question, MCF-7/Ac1 cells were cultured in charcoal stripped serum media (CSSM) for 4 days before adding medium with no virus or with 4000 m.o.i. of either LacZ, or LMW cyclin E (cyclin E-T1) adenoviruses. 24 hours later, cells were left untreated, treated with 25 nM AD alone, or treated with 25 nM AD plus 1 μM letrozole for 3 days (FIG. 24D). The AD-induced growth of MCF-7/Ac1 cells was inhibited by letrozole by 51% in uninfected cells and by 58% in LacZ infected cells while the growth of cyclin E-T1 infected cells was inhibited by only 20% (FIG. 24D, left).

[6] = system: cyclin E-associated kinase activity in MCF-7/Ac1 cells; assay: Cyclin E-associated kinase assay (histone H1); conditions: 25 nM AD, 3 days
Description: (§2) Immunoprecipitation and Immunoblotting. Two hundred fifty μg of cell extracts were used per immunoprecipitation with polyclonal antibody to cyclin E or polyclonal antibody to CDK2, coupled to protein A beads. After being washed, the immunoprecipitates were subjected to electrophoresis in 13% gels, transferred to Immobolin P, blocked, and incubated with the indicated antibodies as already described.
(§3) MCF-7/Ac1 cells were treated with the indicated concentrations of letrozole and AD for 3 days. Cyclin E kinase assays were performed by immunoprecipitating equal amounts of cell lysate (250 μg) with monoclonal antibodies to cyclin E coupled to protein A beads, using histone H1 as substrate. […] The same cell lysates were subjected to western blot analysis (50 μg of protein) with the indicated antibodies. […] The same cell lysates were first immunoprecipitated with cyclin E followed by western blot for p21 and p27. […] The same cell lysates were first immunoprecipitated with CDK2 followed by western blot for p21 and p27. The levels of proteins were measured by densitometric scanning of the corresponding bands and normalized using actin values. The values indicated at the bottom were compared to the values obtained with untreated cells.

[7] = system: MCF-7/Ac1 cells; assay: Western blot of CDK2, phospho-CDK2, cyclin E, pRb; conditions: 25 nM AD
Description: FIG. 28. Effect of increasing concentrations of letrozole in the presence of 25 nM AD on CDK2 kinase activity, activated CDK2 and Rb phosphorylation of MCF7/Ac1 human breast cancer cells. MCF-7/Ac1 cells were treated with the indicated concentrations of letrozole and AD for 3 days. CDK2 kinase assays were performed by immunoprecipitating equal amounts of cell lysate (250 μg) with monoclonal antibodies to CDK2 (D12, sc-6248) coupled to protein G beads, using histone H1 as substrate. […] The same cell lysates were subjected to western blot analysis (50 μg of protein) with the indicated antibodies.
(§4) Western blot analysis. Cell lysates were prepared and subjected to western blot analysis as described previously (Akli et al., 2004). Briefly, 50 μg of protein were subjected to electrophoresis on SDS-PAGE and transferred to Immobilon P overnight at 4° C. at […] constant voltage. The blots were blocked overnight at 4° C. in BLOTTO [5% nonfat dried milk in 20 mM Tris, 137 mM NaCl, and 0.05% Tween (pH 7.6)]. After being washed, the blots were incubated in primary antibodies for 3 h. Primary antibodies used were cyclin E (HE-12; Santa Cruz Biotechnology), p21 (0P64; Oncogene Research Products, Boston, Mass.), p27 (K25020; BD Biosciences-Transduction Laboratories, Lexington, Ky.), cyclin-dependent kinase 2 (CDK2; Transduction Laboratories), and actin (Chemicon International, Inc., Temecula, Calif.). Blots were then incubated with goat anti-mouse or anti-rabbit immunoglobulin-horseradish peroxidase conjugate at a dilution of 1:5000 in BLOTTO for 1 h and finally washed and developed by using the Renaissance chemiluminescence system as directed by the manufacturer (Perkin-Elmer Life Sciences, Inc., Boston, Mass.). Western blots were quantitated by densitometric analysis using IPLab Gel software (Scientific Image Processing, Vienna, Va.). Densitometric values of actin were used to standardize for equal protein loading. These values were introduced into the software Graph-Pad Prism version 4.0 (GraphPad Software, Inc., San Diego, Calif.) for statistical analysis.
as §3

[8] = system: cyclin E and CDK2 complexes in MCF-7/Ac1 cells; assay: Immunoprecipitation of cyclin E or CDK2 followed by western blot for p21 and p27; conditions: 25 nM AD
Description: as §2, §3

[9] = system: CDK2 protein in MCF-7/Ac1 cells; assay: Western blot of CDK2 protein levels in adenovirus-infected cells; conditions: 25 nM AD, uninfected and LacZ infected cells
Description: as §4
MCF-7/Ac1 cells were cultured in IMEM with 10% charcoal-stripped serum medium (CSSM) without phenol red and with 600 μg/ml of G418 for 4 days before plating. […] Cells were then infected with the indicated adenoviruses (at 4000 m.o.i.) 24 hours before drug treatment.

[10] = system: MCF-7/Ac1 cells; assay: Sequential AD/letrozole then roscovitine treatment: cell number and CDK2 western blot; conditions: additional two days in medium or medium plus DMSO
Description: Medium alone or medium plus DMSO were used as controls. A schematic of the treatment strategy is depicted in FIG. 25A. At the conclusion of the treatment, cells were enumerated and subjected to western blot analysis with CDK2 (total) and phospho-CDK2 antibodies.
Cells were then infected with the indicated adenoviruses (at 4000 m.o.i.) 24 hours before drug treatment.

With `C=C1C[C@@H]2[C@H](CC[C@]3(C)C(=O)CC[C@@H]23)[C@@]2(C)C=CC(=O)C=C12` [exemestane] the inhibition at 1 µM ([1]; Homo sapiens, MCF7, 72 h, 1 μM, with 25 nM AD, read-out: inhibition of AD-induced growth) was 25%, the inhibition at 10 µM ([1]; Homo sapiens, MCF7, 72 h, 10 μM, with 25 nM AD, read-out: inhibition of AD-induced growth) was 42% and the “cells in G0-G1” value ([2]; 10 μM, with 25 nM AD) was 49.2+/−0.7%. The “cells in S phase” value ([2]; 10 μM, with 25 nM AD) was 31.7+/−2.5%.
With `CC(C)(C#N)c1cc(Cn2cncn2)cc(C(C)(C)C#N)c1` [anastrozole] the “inhibition of AD-induced growth” value ([1]; any of the concentrations tested, with 25 nM AD) was “did not inhibit” and the “effect on cell cycle distribution” value ([2]; 10 μM, with 25 nM AD) was “more subtle effect”.
In the case of `CC[C@H](CO)Nc1nc(NCc2ccccc2)c2ncn(C(C)C)c2n1` [roscovitine], the cell viability [3] is reported as “dose-dependent reduction in cell viability”, the cell viability [4] is reported as “dose-dependent reduction in cell viability” and the “inhibition of AD-induced increase in cell number” value [5] is reported as “completely inhibited”.
In the case of `C[C@]12CCC(=O)C=C1CC[C@@H]1[C@@H]2CC[C@]2(C)C(=O)CC[C@@H]12` [AD, androstenedione], the “increase in cell number compared to control cells (CSSM)” value ([1]; 25 nM AD) is reported as 3.9+/−1.3 fold, the “fraction of cells in S phase” value ([2]; 25 nM AD alone) is reported as 40.3+/−1.9% and the “increase of fraction of cells in S phase compared to vehicle treated cells” value ([2]; 25 nM AD alone) is reported as 7.3 fold. For the same compound, the “cells in G0-G1” value ([2]; 25 nM AD alone (baseline of exemestane comparison)) was 35.1+/−0.8%, the “increase in cyclin E-associated kinase activity compared to vehicle treated cells” value [6] was 1.6 fold and the “cyclin E protein levels” value [7] was “not affected”. The “increase in CDK2 protein levels compared to vehicle treated cells” value ([7]; 3 days) was 2.3 fold, the “increase in phospho-CDK2” value ([7]; phospho-specific CDK2 antibody) was 3.5 fold and the “increase in p21 binding to CDK2” value [8] was 1.5 fold. The “p21 binding to cyclin E” value [8] was “did not affect”, the “increase in total CDK2 protein levels” value [9] was 1.8 fold and the “increase in AD-induced proliferation” value ([10]; LMW cyclin E overexpressing cells) was 2.3 fold and 2.8 fold. For the same compound, the “increase in AD-induced proliferation” value ([10]; LacZ infected cells) was 3.5 fold and the “increase in AD-induced proliferation” value ([10]; uninfected cells) was 4 fold.
